“And” between values parts separate entries of the source, which are not always exact repeats. Equal values may be shown once.
What was measured:
Assay type in all cases: cell-based
320 non-olfactory GPCRs [1] = biological target: T1, 320 non-olfactory GPCRs (Homo sapiens, UniProt P51684)
T1 construct: expressed in transfected cells; host or cells: HTLA cells

320 non-olfactory GPCRs [2] = biological target: T2, 320 non-olfactory GPCRs (Homo sapiens, UniProt P46663)
T2 construct: expressed in transfected cells; host or cells: HTLA cells
T2 sequence (P46663 whole entry): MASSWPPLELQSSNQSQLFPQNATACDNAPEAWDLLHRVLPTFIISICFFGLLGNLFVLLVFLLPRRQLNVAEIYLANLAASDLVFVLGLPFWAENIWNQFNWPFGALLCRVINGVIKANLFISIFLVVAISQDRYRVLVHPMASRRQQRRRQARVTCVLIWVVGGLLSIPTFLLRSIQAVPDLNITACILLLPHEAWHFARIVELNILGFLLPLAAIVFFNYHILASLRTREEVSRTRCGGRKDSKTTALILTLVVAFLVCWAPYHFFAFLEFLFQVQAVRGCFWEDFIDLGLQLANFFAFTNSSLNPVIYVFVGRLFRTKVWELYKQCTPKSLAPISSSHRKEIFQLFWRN

320 non-olfactory GPCRs [3] = biological target: T3, 320 non-olfactory GPCRs (Homo sapiens, UniProt P50052)
T3 construct: expressed in transfected cells; host or cells: HTLA cells
T3 sequence (P50052 whole entry): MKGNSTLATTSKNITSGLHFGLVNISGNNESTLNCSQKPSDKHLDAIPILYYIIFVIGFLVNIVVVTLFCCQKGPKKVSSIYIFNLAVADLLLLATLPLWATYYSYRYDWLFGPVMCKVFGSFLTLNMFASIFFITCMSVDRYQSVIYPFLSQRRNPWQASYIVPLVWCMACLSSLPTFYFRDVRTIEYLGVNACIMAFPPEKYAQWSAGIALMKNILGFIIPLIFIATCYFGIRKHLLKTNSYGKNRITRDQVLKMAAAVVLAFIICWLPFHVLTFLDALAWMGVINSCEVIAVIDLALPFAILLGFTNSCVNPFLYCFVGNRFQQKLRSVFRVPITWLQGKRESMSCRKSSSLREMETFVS

320 non-olfactory GPCRs [4] = biological target: 320 non-olfactory GPCRs (Homo sapiens, UniProt P35372); conditions: receptor OPRM1; replicate values, Fig_4g
320 non-olfactory GPCRs (Homo sapiens, UniProt P35372), sequence (P35372 whole entry): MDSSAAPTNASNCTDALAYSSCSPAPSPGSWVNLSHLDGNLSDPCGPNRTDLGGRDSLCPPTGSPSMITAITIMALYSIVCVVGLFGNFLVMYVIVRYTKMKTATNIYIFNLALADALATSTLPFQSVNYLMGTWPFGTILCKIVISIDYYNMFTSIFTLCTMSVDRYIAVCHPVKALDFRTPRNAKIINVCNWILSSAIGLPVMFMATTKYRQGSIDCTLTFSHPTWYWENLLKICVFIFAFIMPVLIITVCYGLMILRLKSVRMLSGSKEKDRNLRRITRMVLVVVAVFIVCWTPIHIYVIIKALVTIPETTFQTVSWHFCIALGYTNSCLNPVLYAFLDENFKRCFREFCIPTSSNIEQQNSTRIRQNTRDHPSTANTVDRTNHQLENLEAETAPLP
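For Fold of Basal in this document: compound tested at 1 µM final concentration.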
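For GPCRome agonism screen response in this document: fold over basal response of each receptor without drug.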

T1 sequence (P51684 whole entry): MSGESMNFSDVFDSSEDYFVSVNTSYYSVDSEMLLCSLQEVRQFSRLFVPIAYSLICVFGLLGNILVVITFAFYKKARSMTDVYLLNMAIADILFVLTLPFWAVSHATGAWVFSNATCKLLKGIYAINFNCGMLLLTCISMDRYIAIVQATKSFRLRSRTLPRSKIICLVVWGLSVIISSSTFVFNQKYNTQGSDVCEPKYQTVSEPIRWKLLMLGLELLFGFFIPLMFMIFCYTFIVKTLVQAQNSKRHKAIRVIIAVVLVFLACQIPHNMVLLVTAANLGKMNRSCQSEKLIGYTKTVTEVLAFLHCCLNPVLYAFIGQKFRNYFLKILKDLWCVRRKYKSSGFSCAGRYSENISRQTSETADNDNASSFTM

`CCOc1cccc2cc(C(C)NCC3(O)CCCCC3)oc12` (stereo not shown) [O4LE6] was tested, and the “Fold of Basal” value (320 non-olfactory GPCRs [1]) was 0.9905 and 0.8775 and 0.7328 and 0.5067, the “Fold of Basal” value (320 non-olfactory GPCRs [2]) was 0.6703 and 0.866 and 0.6219 and 0.6427 and the “Fold of Basal” value (320 non-olfactory GPCRs [3]) was 1.003 and 1.182 and 1.322 and 1.107. For the same molecule, the “GPCRome agonism screen response” value (320 non-olfactory GPCRs [4]) was 0.5449 and 0.6973 and 1.0539 and 0.5973.

From article PMC7044277 (Nature Communications, 2020)
